The target of this experiment is T1, Full-length USP19 (Homo sapiens, UniProt O94966).
T1 construct: Full-length USP19 was purchased from Boston Biochem (E-576); purchased Boston Biochem E-576
T1 sequence (O94966 1-1318): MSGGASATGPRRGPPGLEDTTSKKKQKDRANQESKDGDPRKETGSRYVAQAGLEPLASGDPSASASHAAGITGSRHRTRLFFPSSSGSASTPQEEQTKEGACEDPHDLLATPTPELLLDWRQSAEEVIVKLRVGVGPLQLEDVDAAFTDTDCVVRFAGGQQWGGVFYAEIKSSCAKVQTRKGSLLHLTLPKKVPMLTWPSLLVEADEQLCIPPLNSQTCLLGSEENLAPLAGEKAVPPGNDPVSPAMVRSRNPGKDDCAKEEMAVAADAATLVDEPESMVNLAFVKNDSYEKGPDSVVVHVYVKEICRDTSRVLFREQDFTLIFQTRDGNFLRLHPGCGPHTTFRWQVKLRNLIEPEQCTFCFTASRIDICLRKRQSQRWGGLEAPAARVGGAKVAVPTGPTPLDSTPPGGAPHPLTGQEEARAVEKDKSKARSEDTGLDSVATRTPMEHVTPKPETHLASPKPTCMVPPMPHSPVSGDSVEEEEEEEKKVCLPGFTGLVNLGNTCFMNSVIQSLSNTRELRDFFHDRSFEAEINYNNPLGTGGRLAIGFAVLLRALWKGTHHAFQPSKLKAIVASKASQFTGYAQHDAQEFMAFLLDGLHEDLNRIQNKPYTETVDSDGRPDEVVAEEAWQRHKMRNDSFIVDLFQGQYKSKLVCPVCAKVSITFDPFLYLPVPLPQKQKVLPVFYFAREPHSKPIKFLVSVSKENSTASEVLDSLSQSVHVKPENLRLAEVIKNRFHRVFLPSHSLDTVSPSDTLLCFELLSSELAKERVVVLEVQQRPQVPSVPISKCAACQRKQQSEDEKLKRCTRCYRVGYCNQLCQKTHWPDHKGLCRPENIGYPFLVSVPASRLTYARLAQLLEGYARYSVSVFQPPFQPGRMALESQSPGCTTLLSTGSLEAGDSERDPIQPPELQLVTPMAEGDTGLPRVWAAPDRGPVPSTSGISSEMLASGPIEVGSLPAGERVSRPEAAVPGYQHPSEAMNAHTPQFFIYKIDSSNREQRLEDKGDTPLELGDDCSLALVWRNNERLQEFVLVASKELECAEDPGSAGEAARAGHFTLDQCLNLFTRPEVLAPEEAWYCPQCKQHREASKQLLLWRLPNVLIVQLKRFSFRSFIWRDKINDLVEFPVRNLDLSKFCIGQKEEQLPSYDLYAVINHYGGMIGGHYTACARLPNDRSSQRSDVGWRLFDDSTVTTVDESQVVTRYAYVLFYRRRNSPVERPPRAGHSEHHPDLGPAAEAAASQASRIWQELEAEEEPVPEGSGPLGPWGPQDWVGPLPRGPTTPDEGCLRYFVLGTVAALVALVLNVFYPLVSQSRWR
The experiment in a line: USP19 fluorescence polarisation (FP) homogeneous assay with Ubiquitin-Lys-TAMRA substrate. The settings on record: 2.5 nM USP19, 30 min pre-incubation, average of at least two duplicate experiments. The experiment is classed as biochemical. The method in brief: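 Full-length USP19 preincubated 30 min at RT with inhibitor (200 μM to 2 μM series, 8–18 points) before adding 500 nM Ubiquitin-Lys-TAMRA substrate.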
A general note: Fluorescence polarisation rises when a labelled molecule tumbles more slowly, as on binding a larger partner.

The values below come from patent publication US20220033397A1, “PHARMACEUTICAL COMPOUNDS AND THEIR USE AS INHIBITORS OF UBIQUITIN SPECIFIC PROTEASE 19 (USP19)” (ALMAC DISCOVERY LIMITED, priority 2018, published 2022).

In general, IC50 refers to the concentration that inhibits the measured activity by half.

As for `CSc1cn(CC2(O)CCN(C(=O)N3CCNC[C@H]3c3ccccc3)CC23CCCC3)c(=O)cc1-c1ccccc1` (stereo partly drawn) [Example 186, 1-((10-Hydroxy-7-((R)-2-phenylpiperazine-1-carbonyl)-7-azaspiro[4.5]decan-10-yl)methyl)-5-(methylthio)-4-phenylpyridin-2(1H)-one], the IC50 was below 0.5 µM. For `O=C(N1CCC(O)(Cn2cnc(-c3ccccc3)cc2=O)C2(CCCC2)C1)N1CCSCC1c1ccccc1` [Example 333, (S)-3-((10-Hydroxy-7-(3-phenylthiomorpholine-4-carbonyl)-7-azaspiro[4.5]decan-10-yl)methyl)-6-phenylpyrimidin-4(3H)-one], the IC50 was below 0.5 µM. On to `CC(C1CC1)N(C)C(=O)N1CCC(O)(Cn2cnc(-c3ccccc3)cc2=O)C2(CCCC2)C1` (stereo not shown) [Example 247, N-(1-Cyclopropylethyl)-10-hydroxy-N-methyl-10-((6-oxo-4-phenylpyrimidin-1(6H)-yl)methyl)-7-azaspiro[4.5]decane-7-carboxamide], for which the IC50 fell in the range of 5 to 50 µM. Under `C[C@H](CC1CCCCC1)C(=O)N1CCC(O)(Cn2cc(-c3ccccn3)ncc2=O)C(C)(C)C1` (stereo partly drawn) [Example 23, 1-((1-((R)-3-Cyclohexyl-2-methylpropanoyl)-4-hydroxy-3,3-dimethylpiperidin-4-yl)methyl)-5-(pyridin-2-yl)pyrazin-2(1H)-one] stands 5 to 50 µM.
